Source: patent publication US10006079B2, “Method for establishing the anti-diabetic potential of bitter melon” (Glykon Technologies Group, LLC, priority 2013, dated 2018)

Columns and labels:
[1] = system: streptozotocin-induced diabetic rats; experiment: Anti-hyperglycemic activity of bitter melon extracts in streptozotocin-induced diabetic rats (blood glucose); format: in vivo, Wistar Albino male rats; details: extracts 250 mg/kg, metformin 150 mg/kg
Method: (§1) This and related experiments subsequently were published (Clouatre et al., 2011.) Wistar Albino male rats 12 weeks of age were obtained from St John's Pharmacy College Animal House, India and handled according to institutional practices. […] All rats were fed a standard rat chow diet ad libitum from Sai Durga Feed, Bangalore; water also was supplied ad libitum. Following 7 days acclimatization, one half of the rats were fasted for 24 hours and then injected with freshly prepared STZ in citrate buffer [[…]] (45 mg/kg, i.p). After one week, rats with marked hyperglycemia (fasting blood glucose >300 mg/dL) were used as the diabetic rats.
(§2) Extracts 1-4 were produced and preserved via different methods attempting to retain efficacies reported for macerated fresh fruit preparations. EX-1 was a vacuum-dried powder of the macerated extract of fresh fruit (˜25:1). EX-2 was a freeze-dried powder of the macerated extract of fresh fruit (˜25:1). EX-3 was a spray-dried powder of the macerated extract of fresh fruit (˜25:1). EX-4 was a vacuum-dried powder of the macerated extract of fresh fruit adsorbed onto powdered vacuum-dried fresh fruit (˜15:1). Dosages of the extracts (mg/kg bodyweight/day) were 50 and 250 mg/kg as indicated. After an overnight fast, the extract samples suspended in 5% gum acacia were administered to the animals by gastric intubations with a syringe.
(§3) For test purposes, glucose was given orally by intubation as a 40% solution (1 g/kg body wt). Blood samples following the glucose challenge were collected for the measurement of blood glucose from the tail vein at 0, 1, 2, 3 and 4 hrs. The blood glucose level was determined by using an electronic glucometer (Accu Check, Roche Diagnostic).
Next, the anti-hyperglycemic activity of bitter melon extracts was studied in streptozotocin-induced diabetic rats described above.

Normal Rats = experiment: Hypoglycemic activity of bitter melon extracts in normal rats (blood glucose after oral glucose challenge); format: in vivo, Wistar Albino male rats; details: for hypoglycemia in normal animals (glucose <70 mg/dL in this model): 50 mg/kg
Method: as §1, §2, §3
First, the hypoglycemic activity of bitter melon extracts was studied in normal rats.

## CN(C)C(=N)N=C(N)N [Metformin, metformin]
[1]; diabetic animals, at 4 hours
  reduced blood glucose, percent: 53.52 percent (mg %)
[1]; diabetic rats, +1 hr
  Blood Glucose Level, Treatment +1 hr: 271.6 ± 4.0 mg %
[1]; diabetic rats, +2 hr
  Blood Glucose Level, Treatment +2 hr: 214.4 ± 3.2 mg %
  percent reduction of blood sugar level compared with initial level of blood glucose (0 h): (34.9) percent
[1]; diabetic rats, +3 hr
  Blood Glucose Level, Treatment +3 hr: 176.0 ± 6.7 mg %
  percent reduction of blood sugar level compared with initial level of blood glucose (0 h): (46.4) percent
[1]; diabetic rats, +4 hr
  Blood Glucose Level, Treatment +4 hr: 153.0 ± 3.3 mg %
  percent reduction of blood sugar level compared with initial level of blood glucose (0 h): (53.5) percent
[1]; diabetic rats, initial value 0 hr
  Blood Glucose Level, Initial (0 hr): 329.2 ± 5.3 mg %
Normal Rats
  hypoglycemia in normal animals (glucose <70 mg/dL in this model): resulted in hypoglycemia
Normal Rats; 50 mg/kg oral, +1 hr
  Blood Glucose Level, Treatment +1 hr: 85.5 ± 1.8 mg %
Normal Rats; 50 mg/kg oral, +2 hr
  Blood Glucose Level, Treatment +2 hr: 73.5 ± 1.2 mg %
  percent reduction in blood sugar level compared with initial glucose value (0 h): (34.9) percent
Normal Rats; 50 mg/kg oral, +3 hr
  Blood Glucose Level, Treatment +3 hr: 66.5 ± 1.2 mg %
  percent reduction in blood sugar level compared with initial glucose value (0 h): (46.4) percent
Normal Rats; 50 mg/kg oral, +4 hr
  Blood Glucose Level, Treatment +4 hr: 52.5 ± 0.7 mg %
  percent reduction in blood sugar level compared with initial glucose value (0 h): (53.5) percent
Normal Rats; 50 mg/kg oral, initial value 0 hr
  Blood Glucose Level, Initial (0 hr): 93.3 ± 1.3 mg %
Normal Rats; listed as metformin
  hypoglycemia in normal animals (glucose <70 mg/dL in this model): led to hypoglycemia
